According to patent publication US20210161837A1, “METHODS FOR TREATING CANCER WITH RORGAMMA INHIBITORS” (The Regents of the University of California, priority 2016, published 2021):

Key:
[1] = system: key proliferation and survival proteins, including Myc; assay: Immunoblotting of key proliferation and survival proteins; assay type: cell-based, human; conditions: 3 days
Procedure: Data shown are mean percentage of apoptotic cells±s.d. […] Data shown are mean±s.d. Significance was calculated using Student's t-test. *p<0.05, **p<0.01.
(a&b) C4-2B and 22Rv1 cell proliferation after the RORγ antagonist treatment. Cells were seeded in 6-well plates and counted after cells were treated with indicated concentrations of RORγ antagonists for 0, 2, 4 and 6 days by Coulter counter. […] (e) representative images of TUNEL positive cells treated with vehicle or the antagonist (5 μM) in 22Rv1 cells are shown. […] Three days later, cells were harvested for immunoblotting with indicated antibodies.
Total RNA was isolated from cells in 6-well or 10-cm plates or from xenograft tumors, and the cDNA was prepared, amplified and measured in the presence of SYBR as described in Yang, P., et al., Molecular and cellular biology 32, 3121-3131 (2012). Briefly, the fluorescent values were collected and a melting curve analysis was performed. Fold difference was calculated as described previously Yang, P., et al. (see, id). The experiments were performed at least three times with data presented as mean values±s.d. Cell lysates were analyzed by immunoblotting with antibodies specifically recognizing RORγ, AR, AR-V7 and the indicated proteins.

[2] = system: 22Rv1 xenografts; assay: 22Rv1 xenograft tumor growth; assay type: in vivo, mouse; conditions: 5 mg/kg, i.p., 5 times a week, 21-24 days

O=C(Cc1ccccc1[N+](=O)[O-])Nc1ccc(-c2ccc(C(O)(C(F)(F)F)C(F)(F)F)cc2F)cc1 [XY018, N-(2′-fluoro-4′-(1,1,1,3,3,3-hexafluoro-2-hydroxypropan-2-yl)-[1,1′-biphenyl]-4-yl)-2-(2-nitrophenyl)acetamide]
expression of key proliferation and survival proteins, including Myc [1]: strongly inhibited the expression | tumor growth inhibition [2]: strong tumor growth inhibition
